From patent US9247741B2, “Use of macrocyclic picolinamides as fungicides” (DOW AGROSCIENCES LLC, priority 2013, dated 2016)
Like-named read-outs stand apart in the source and are kept apart here.

Tests used:
Format in all cases: in vivo
Cercospora beticola = test: Leaf spot of sugar beets (CERCBE) disease control; conditions: 24 h, 1 Day Protectant, sugar beet, read-out: CERCBE disease control rating
Procedure: Technical grades of materials were dissolved in acetone, which were then mixed with nine volumes of water containing 110 ppm Triton X-100. The fungicide solutions were applied onto wheat seedlings using an automated booth sprayer to run-off. All sprayed plants were allowed to air dry prior to further handling. All fungicides were evaluated using the aforementioned method for their activity vs. all target diseases. Wheat leaf blotch and brown rust activity were also evaluated using track spray applications, in which case the fungicides were formulated as EC formulations, containing 0.1% Trycol 5941 in the spray solutions. Wheat plants (variety Yuma) were grown from seed in a greenhouse in 50% mineral soil/50% soil-less Metro mix until the first leaf was fully emerged, with 7-10 seedlings per pot. These plants were inoculated with an aqueous spore suspension of Septoria tritici either prior to or after fungicide treatments. After inoculation the plants were kept in 100% relative humidity (one day in a dark dew chamber followed by two to three days in a lighted dew chamber at 20° C.) to permit spores to germinate and infect the leaf. The plants were then transferred to a greenhouse set at 20° C. for disease to develop. When disease symptoms were fully expressed on the l^st leaves of untreated plants, infection levels were assessed on a scale of 0 to 100 percent disease severity. Percent disease control was calculated using the ratio of disease severity on treated plants relative to untreated plants. Evaluation of Fungicidal Activity: Leaf Spot of Sugar Beets (Cercospora beticola; Bayer Code CERCBE) Sugar beet plants (variety HH88) were grown in soil-less Metro mix and trimmed regularly to maintain a uniform plant size prior to test. Plants were inoculated with a spore suspension 24 hr after fungicide treatments. Inoculated plants were kept in a dew chamber at 22° C. for 48 hr then incubated in a greenhouse set at 24° C. under a clear plastic hood with bottom ventilation until disease symptoms were fully expressed. Fungicide formulation, application and disease assessment on the sprayed leaves followed the procedures as described in the Example A.

Puccinia triticina = test: Wheat brown rust (PUCCRT) disease control on wheat seedlings; conditions: for pest or weed control at 121.5 g/ha: 121.5 g/H (low volume track spray); for pest or weed control at 100 ppm: 100 ppm (high volume)
Procedure: Technical grades of materials were dissolved in acetone, which were then mixed with nine volumes of water containing 110 ppm Triton X-100. The fungicide solutions were applied onto wheat seedlings using an automated booth sprayer to run-off. All sprayed plants were allowed to air dry prior to further handling. All fungicides were evaluated using the aforementioned method for their activity vs. all target diseases. Wheat leaf blotch and brown rust activity were also evaluated using track spray applications, in which case the fungicides were formulated as EC formulations, containing 0.1% Trycol 5941 in the spray solutions. Wheat plants (variety Yuma) were grown from seed in a greenhouse in 50% mineral soil/50% soil-less Metro mix until the first leaf was fully emerged, with 7-10 seedlings per pot. These plants were inoculated with an aqueous spore suspension of Septoria tritici either prior to or after fungicide treatments. After inoculation the plants were kept in 100% relative humidity (one day in a dark dew chamber followed by two to three days in a lighted dew chamber at 20° C.) to permit spores to germinate and infect the leaf. The plants were then transferred to a greenhouse set at 20° C. for disease to develop. When disease symptoms were fully expressed on the l^st leaves of untreated plants, infection levels were assessed on a scale of 0 to 100 percent disease severity. Percent disease control was calculated using the ratio of disease severity on treated plants relative to untreated plants. Evaluation of Fungicidal Activity: Wheat Brown Rust (Puccinia triticina; Synonym: Puccinia recondite f sp. tritici; Bayer code PUCCRT) Wheat plants (variety Yuma) were grown from seed in a greenhouse in 50% mineral soil/50% soil-less Metro mix until the first leaf was fully emerged, with 7-10 seedlings per pot. These plants were inoculated with an aqueous spore suspension of Puccinia triticina either prior to or after fungicide treatments. After inoculation the plants were kept in a dark dew room at 22° C. with 100% relative humidity overnight to permit spores to germinate and infect the leaf. The plants were then transferred to a greenhouse set at 24° C. for disease to develop. Fungicide formulation, application and disease assessment followed the procedures as described in the Example A.

Uncinula necator = test: Grape powdery mildew (UNCINE) disease control; conditions: Erysiphe necator, 24 h, 1 Day Protectant, read-out: UNCINE disease control rating
Procedure: Technical grades of materials were dissolved in acetone, which were then mixed with nine volumes of water containing 110 ppm Triton X-100. The fungicide solutions were applied onto wheat seedlings using an automated booth sprayer to run-off. All sprayed plants were allowed to air dry prior to further handling. All fungicides were evaluated using the aforementioned method for their activity vs. all target diseases. Wheat leaf blotch and brown rust activity were also evaluated using track spray applications, in which case the fungicides were formulated as EC formulations, containing 0.1% Trycol 5941 in the spray solutions. Wheat plants (variety Yuma) were grown from seed in a greenhouse in 50% mineral soil/50% soil-less Metro mix until the first leaf was fully emerged, with 7-10 seedlings per pot. These plants were inoculated with an aqueous spore suspension of Septoria tritici either prior to or after fungicide treatments. After inoculation the plants were kept in 100% relative humidity (one day in a dark dew chamber followed by two to three days in a lighted dew chamber at 20° C.) to permit spores to germinate and infect the leaf. The plants were then transferred to a greenhouse set at 20° C. for disease to develop. When disease symptoms were fully expressed on the l^st leaves of untreated plants, infection levels were assessed on a scale of 0 to 100 percent disease severity. Percent disease control was calculated using the ratio of disease severity on treated plants relative to untreated plants. Evaluation of Fungicidal Activity: Grape Powdery Mildew (Uncinula necator; Bayer Code […]) Grape seedlings (variety Carignane) were grown in soil-less Metro mix, with one plant per pot, and used in the test when approximately one month old. Plants were inoculated 24 hr after fungicide treatment by shaking spores from infected leaves over test plants. Plants were maintained in a greenhouse set at 20° C. until disease was fully developed. Fungicide formulation, application and disease assessment on the sprayed leaves followed the procedures as described in the Example A.

[1] = 24 h, 1 Day Protectant, read-out: PUCCRT 1DP disease control rating
[2] = 72 h, 3 Day Curative, read-out: PUCCRT 3DC disease control rating

SMILES	pest or weed control at 100 ppm (Cercospora beticola) [%]	pest or weed control at 121.5 g/ha (Puccinia triticina; [1]) [%]	pest or weed control at 121.5 g/ha (Puccinia triticina; [2]) [%]	pest or weed control at 100 ppm (Uncinula necator) [%]	pest or weed control at 100 ppm (Puccinia triticina; [1]) [%]	pest or weed control at 100 ppm (Puccinia triticina; [2]) [%]
CCCC[C@H]1[C@H](C)OC(=O)[C@@H](NC(=O)c2nccc(OC)c2OCOC(C)=O)CCC[C@@H]1OCC1CC1 [Compound 73]	> 70	> 70	> 70	> 70		
CCCO[C@H]1CCC[C@H](NC(=O)c2nccc(OC)c2OC(C)=O)C(=O)O[C@@H](C)[C@@H]1CCC(C)C [Compound 74, 2-(((3S,7S,8S,9S)-8-isopentyl-9-methyl-2-oxo-7-propoxyoxonan-3-yl)carbamoyl)-4-methoxypyridin-3-yl acetate]	> 70	> 70	> 70	> 70		
COc1ccnc(C(=O)N[C@H]2CCC[C@H](Oc3ccccc3)[C@@H](CCC(C)C)[C@H](C)OC2=O)c1OCOC(C)=O [Compound 40]	> 70	> 70	> 70	> 70		
CCCO[C@H]1CCC[C@H](NC(=O)c2nccc(OC)c2OCOC(C)=O)C(=O)O[C@@H](C)[C@@H]1CCC(C)C [Compound 25, ((2-(((3S,7S,8S,9S)-8-isopentyl-9-methyl-2-oxo-7-propoxyoxonan-3-yl)carbamoyl)-4-methoxypyridin-3-yl)oxy)methyl acetate]	> 70	> 70	> 70	> 70		
CCCO[C@H]1CCC[C@H](NC(=O)c2nccc(OC)c2OC(C)=O)C(=O)O[C@@H](C)[C@@H]1Cc1ccccc1 [Compound 70]	> 70	> 70	> 70	> 70	> 70	> 70
COc1ccnc(C(=O)N[C@H]2CCC[C@H](OCC3CC3)[C@@H](Cc3ccc(F)cc3)[C@H](C)OC2=O)c1OCOC(C)=O [Compound 61]	> 70	> 70	> 70	> 70		
CCCC[C@H]1[C@H](C)OC(=O)[C@@H](NC(=O)c2nccc(OC)c2OCOC(C)=O)CCC[C@@H]1Oc1ccccc1 [Compound 33]	> 70	> 70	> 70	> 70		
COc1ccnc(C(=O)N[C@H]2CCC[C@H](Oc3ccccc3)[C@@H](CCC(C)C)[C@H](C)OC2=O)c1OC(C)=O [Compound 36]	> 70	> 70	< 70	> 70		
